Reference: paper PMC9600929, “Structural and Mechanistic Bases of Viral Resistance to HIV-1 Capsid Inhibitor Lenacapavir” (mBio, 2022)
Where “and” joins values, the source holds several entries; their conditions need not be identical. Equal entries are not always repeated.

How the values were obtained:
HIV-1NL4-3 WT CA = assay: microbe, parasite or virus in culture; assay type: cell-based; details: Human immunodeficiency virus 1, MT4
HIV-1NL4-3 N74D CA = assay: microbe, parasite or virus in culture; assay type: cell-based; details: for EC50: Human immunodeficiency virus 1, MT4
HIV-1NL4-3 Q67H/N74D CA = assay: microbe, parasite or virus in culture; assay type: cell-based; details: for EC50: Human immunodeficiency virus 1, MT4
HIV-1(M66I CA) = assay type: cell-based; details: early stage antiviral activity
HIV-1NL4-3 Q67H/K70R CA = assay: microbe, parasite or virus in culture; assay type: cell-based; details: for EC50: Human immunodeficiency virus 1, MT4, HIV-1NL4-3 Q67H/K70R CA, MT-4 cells, mean ± SD
[1] = molecular target: T1, cross-linked HIV-1 CA(Q67H/N74D) hexamer (Human immunodeficiency virus type 1 group M subtype B, UniProt P12493, A146C/E177C/M317A/N206D/Q199H/W316A); assay: biochemical; assay type: binding
T1 construct: Expression, purification and assembly of recombinant CA; made in house; host or cells: E. coli BL21-DE3 (pET3a)

MT4 cells = assay: in vitro; assay type: cell-based; details: MT4 cells, 2 days, CellTiter-Glo
Protocol: (§1) MT4 cells in complete RPMI were mixed with the indicated concentrations of compounds on 96-well plates (1 × 10^4 cells per well). Cells were kept in a humidified 37°C incubator for 2 days. The effect of test compounds on cell viability was measured using CellTiter-Glo (Promega, G7570).

in vitro = assay type: cell-based; details: human; from cytotoxicity (Fig. S7) and antiviral activity (Fig. 5C); read-out: selectivity index
Protocol: as §1

[2] = molecular target: cross-linked HIV-1 CA(WT) hexamer (Human immunodeficiency virus type 1 group M subtype B, UniProt P12493, A146C/E177C/M317A/W316A); assay: SPR binding to cross-linked CA(WT) hexamers
HIV-1NL4-3 Q67H CA = assay: microbe, parasite or virus in culture; assay type: cell-based; details: for EC50: Human immunodeficiency virus 1, MT4
[3] = system: HIV-1 reverse transcription; set-up: method as in PMID 32612233, PMID 31501601, PMID 33060363; details: during virus ingress; cited from earlier work
HIV-1 nuclear import = system: HIV-1 nuclear import; set-up: method as in PMID 32612233, PMID 31501601, PMID 33060363; details: during virus ingress; cited from earlier work
[4] = molecular target: cross-linked HIV-1 CA(N74D) hexamer (Human immunodeficiency virus type 1 group M subtype B, UniProt P12493, A146C/E177C/M317A/N206D/W316A); assay: SPR binding to cross-linked CA(N74D) hexamers
HIV-1 integration = system: HIV-1 integration; set-up: method as in PMID 32612233, PMID 31501601, PMID 33060363; details: during virus ingress; cited from earlier work
[5] = molecular target: cross-linked HIV-1 CA(Q67H) hexamer (Human immunodeficiency virus type 1 group M subtype B, UniProt P12493, A146C/E177C/M317A/Q199H/W316A); assay: SPR binding to cross-linked CA(Q67H) hexamers
[6] = WT compared to WT CA (reference)

CC(C)(C#Cc1ccc(-c2ccc(Cl)c3c(NS(C)(=O)=O)nn(CC(F)(F)F)c23)c([C@H](Cc2cc(F)cc(F)c2)NC(=O)Cn2nc(C(F)(F)F)c3c2CCCC3)n1)S(C)(=O)=O [KFA-012]
EC50 (HIV-1NL4-3 WT CA): 0.071 ± 0.006 nM
EC50 (HIV-1NL4-3 N74D CA): 0.633 ± 0.014 nM
Fold increase of KFA-012 potency versus LEN potency (HIV-1NL4-3 Q67H/N74D CA; HIV-1NL4-3 Q67H/N74D CA): 2.6 fold
EC50 (HIV-1NL4-3 Q67H/N74D CA): 9.18 nM
susceptibility of the virus to the inhibitor (HIV-1(M66I CA)): fully resistant
Fold increase of KFA-012 potency versus LEN potency (HIV-1NL4-3 Q67H/K70R CA; HIV-1NL4-3 Q67H/K70R CA): ~ 1.7 fold
EC50 (HIV-1NL4-3 Q67H/K70R CA): 0.883 ± 0.17 nM
improved binding affinity compared with parental LEN ([1]; CA(Q67H/N74D) hexamer, SPR): ~ 2 fold
compound concentrations with adverse effects on cell viability (MT4 cells): > 3000 nM
concentration up to which no cytotoxicity was observed (MT4 cells): up to 781 nM
selectivity ratio at 2 days (in vitro): > 10000
improved binding affinity compared with parental LEN ([2]; CA(WT) hexamer, SPR): ~ 2 fold
Fold increase of KFA-012 potency versus LEN potency (HIV-1NL4-3 Q67H CA; HIV-1NL4-3 Q67H CA): 1.8 fold
EC50 (HIV-1NL4-3 Q67H CA): 0.335 ± 0.01 nM

CC(C)(C#Cc1ccc(-c2ccc(Cl)c3c(NS(C)(=O)=O)nn(CC(F)(F)F)c23)c([C@H](Cc2cc(F)cc(F)c2)NC(=O)Cn2nc(C(F)(F)F)c3c2C(F)(F)[C@@H]2C[C@H]32)n1)S(C)(=O)=O [LEN, Lenacapavir]
EC50 (HIV-1NL4-3 WT CA): 0.091 ± 0.01 nM
EC50 [3]: 5 to 50 nM
EC50 (HIV-1NL4-3 N74D CA): 0.902 ± 0.027 nM
decreased virus susceptibility to the inhibitor (HIV-1NL4-3 N74D CA; {}): ~ 10 fold
EC50 (HIV-1NL4-3 Q67H/N74D CA): 24.2 nM
susceptibility of the virus to the inhibitor (HIV-1(M66I CA)): fully resistant
EC50 (HIV-1 nuclear import): 0.5 to 5 nM
EC50 (HIV-1NL4-3 Q67H/K70R CA): 1.5 ± 0.023 nM
association rate constant (kon) ([1]; CA (Q67H/N74D), mean ± SD): 3.0 ± 0.9 x 10^4 M^-1s^-1
dissociation rate constant (koff) ([1]; CA (Q67H/N74D), mean ± SD): 1.1 ± 0.5 x 10^-3 s^-1
Kd ([1]; CA (Q67H/N74D), mean ± SD, read-out: equilibrium dissociation constant (KD)): 34.1 nM
koff fold change ([1]; Q67H/N74D CA compared to WT CA): 73 fold
kon fold change ([1]; Q67H/N74D CA compared to WT CA): 0.4 fold
association rate constant (kon) ([4]; CA (N74D), mean ± SD): 3.0 ± 0.3 x 10^4 M^-1s^-1
dissociation rate constant (koff) ([4]; CA (N74D), mean ± SD): 1.4 ± 0.02 x 10^-4 s^-1
Kd ([4]; CA (N74D), mean ± SD, read-out: equilibrium dissociation constant (KD)): 4.6 nM
koff fold change ([4]; N74D CA compared to WT CA): ~ 10 fold and 9 fold
kon fold change ([4]; N74D CA compared to WT CA): 0.4 fold
adverse effect on association rate constant ([4]; N74D CA versus WT CA, stated as fold adverse effect): ~ 2 fold
association rate constant (kon) ([2]; CA (WT), mean ± SD): 7.0 ± 1.6 x 10^4 M^-1s^-1
dissociation rate constant (koff) ([2]; CA (WT), mean ± SD): 1.5 ± 0.2 x 10^-5 s^-1
Kd ([2]; CA (WT), mean ± SD, three independent experiments, read-out: equilibrium dissociation constant (KD)): 0.23 ± 0.08 nM
KD fold change [2, 6]: 1 fold
koff fold change [2, 6]: 1 fold
kon fold change [2, 6]: 1 fold
EC50 (HIV-1 integration): 0.05 to 0.5 nM
EC50 (HIV-1NL4-3 Q67H CA): 0.611 ± 0.01 nM
decreased potency of the inhibitor with respect to the CA variant (HIV-1NL4-3 Q67H CA; Q67H CA variant versus WT): 7 fold
association rate constant (kon) ([5]; CA (Q67H), mean ± SD): 6.4 ± 1.1 x 10^4 M^-1s^-1
dissociation rate constant (koff) ([5]; CA (Q67H), mean ± SD): 7.3 ± 1.0 x 10^-5 s^-1
Kd ([5]; CA (Q67H), mean ± SD, read-out: equilibrium dissociation constant (KD)): 1.2 nM
koff fold change ([5]; Q67H CA compared to WT CA): 5 fold
kon fold change ([5]; Q67H CA compared to WT CA): 0.9 fold
